The source of these data is PubChem BioAssay (NCI).

Each structure is given as a SMILES string.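 Interpolation was linear, between the two tested concentrations surrounding the appropriate level; five concentrations were tested over 48 hours in 96-well plates. At the GI50, growth is halved. TGI marks complete inhibition of growth.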

Test systems include SK-MEL-28 melanoma; UACC-62 melanoma; RXF 393 renal; HOP-92 NSCLC; MALME-3M melanoma; HT29 colon; UO-31 renal; SW-620 colon; 786-0 renal; MDA-MB-231 breast.
Common to all, as to assay: inhibition of tumour cell growth, NCI panel, 48 h

Regarding `CCOC(=O)C1Oc2ccc([N+](=O)[O-])c3c2C1(O)CCC3` (stereo not given), the TGI with SK-MEL-28 melanoma, with UACC-62 melanoma, with RXF 393 renal, in the experiment on HOP-92 NSCLC, with MALME-3M melanoma and in the experiment with HT29 colon was above 100 µM each time. Moreover, the TGI with UO-31 renal, in the experiment with SW-620 colon and with 786-0 renal was above 100 µM throughout.
Take `COc1ccc(C2CC(c3cc(OC)c(OC)c(OC)c3)=NN2C(C)=O)cc1OCC(=O)Nc1nc2ccc(C(F)(F)F)cc2s1` (stereo not given): the GI50 in the experiment on UACC-62 melanoma is 3.77 µM; in the experiment with RXF 393 renal, 2.09 µM; in the experiment with HOP-92 NSCLC, 1.7 µM; in the experiment with SW-620 colon, above 100 µM; with 786-0 renal it was 3.58 µM; in the experiment on MDA-MB-231 breast it was 3.11 µM. Moreover, the TGI in the experiment on UACC-62 melanoma is above 100 µM; in the experiment on RXF 393 renal, 5.32 µM; in the experiment on HOP-92 NSCLC it was 4.02 µM; in the experiment with SW-620 colon it was above 100 µM; with 786-0 renal, 12.2 µM; with MDA-MB-231 breast, 8.96 µM.
Turning to `O=c1[nH]c2ccccc2nc1-c1c[nH]c2ccccc12`, the GI50 in the experiment on SK-MEL-28 melanoma was above 100 µM; in the experiment with RXF 393 renal, 7.41 µM; in the experiment on MALME-3M melanoma, 39.8 µM; in the experiment with HT29 colon, above 100 µM; with UO-31 renal, 0.725 µM; with SW-620 colon, above 100 µM. Besides, the GI50 is above 100 µM in the experiment on 786-0 renal and 7.38 µM in the experiment with MDA-MB-231 breast. Also, the TGI in the experiment with SK-MEL-28 melanoma, with RXF 393 renal, in the experiment with MALME-3M melanoma, in the experiment with HT29 colon, in the experiment with UO-31 renal and in the experiment on SW-620 colon was above 100 µM in each case. In addition, the TGI in the experiment on 786-0 renal and with MDA-MB-231 breast was above 100 µM each time.
As for `C=CCOC1OC(CO[Si](C)(C)C(C)(C)C)C(OCc2ccccc2)C(OCc2ccccc2)C1OCc1ccccc1` (stereo not given), the TGI with SK-MEL-28 melanoma, with UACC-62 melanoma, in the experiment on HOP-92 NSCLC, in the experiment with MALME-3M melanoma, with HT29 colon and in the experiment on UO-31 renal was above 100 µM each time. For the same molecule, the results for the TGI with SW-620 colon and with 786-0 renal were above 100 µM and 22.3 µM, respectively.
As for `Cc1cc2c(C)n(Cc3ccc(Cl)cc3Cl)nc2c(C#N)c1C`, the TGI in the experiment with SK-MEL-28 melanoma is above 100 µM; in the experiment with UACC-62 melanoma it was above 100 µM; in the experiment on RXF 393 renal, 57.3 µM; with HOP-92 NSCLC, 36.9 µM; with MALME-3M melanoma it was above 81.6 µM; with HT29 colon it was above 100 µM. The TGI in the experiment on UO-31 renal was above 95.3 µM; in the experiment on SW-620 colon, above 100 µM; with 786-0 renal, 37.4 µM.
Turning to `CCOc1ccc2nc(NC(=O)c3c/c(=N\NC(=O)C[N+](C)(C)C)c4ccc(O)cc4o3)sc2c1`, the TGI came to 13 µM in the experiment with SK-MEL-28 melanoma; 3.21 µM with UACC-62 melanoma; 14.4 µM in the experiment on RXF 393 renal; 6.99 µM in the experiment with HOP-92 NSCLC; 2.56 µM in the experiment with MALME-3M melanoma; 13 µM with HT29 colon. Further, the TGI in the experiment with UO-31 renal was determined as 24.7 µM; in the experiment with SW-620 colon, 5.28 µM; in the experiment on 786-0 renal, 10.9 µM.
Take `O=S(=O)(c1ccccc1)C(CN1CCCCC1)S(=O)(=O)c1ccccc1`: the TGI in the experiment on SK-MEL-28 melanoma, with UACC-62 melanoma, in the experiment with RXF 393 renal, in the experiment with HOP-92 NSCLC, with MALME-3M melanoma and with HT29 colon was above 100 µM each time. The TGI with UO-31 renal, in the experiment on SW-620 colon and in the experiment on 786-0 renal was above 100 µM each time.
As for `CCOC(=O)c1oc2ccc(OC)c3c2c1CCC3`, the TGI with SK-MEL-28 melanoma, in the experiment with UACC-62 melanoma, in the experiment on RXF 393 renal, in the experiment on HOP-92 NSCLC, with MALME-3M melanoma and with UO-31 renal was above 100 µM each time. For the same molecule, the TGI in the experiment on SW-620 colon and in the experiment on 786-0 renal was above 100 µM each time.
Turning to `Brc1cccc(C2SCc3nc4ccccc4n32)c1` (stereo not given), the TGI in the experiment with SK-MEL-28 melanoma is 47.9 µM; with UACC-62 melanoma, 31 µM; with RXF 393 renal it was 26.4 µM; in the experiment with HOP-92 NSCLC it was 35.6 µM; in the experiment with MALME-3M melanoma it was 77.5 µM; in the experiment with HT29 colon, 52.3 µM. For the same molecule, the TGI is 25.7 µM in the experiment on UO-31 renal, above 100 µM with SW-620 colon and 44.5 µM with 786-0 renal.
Regarding `Cn1cnc2nc(Cl)nc(NC(C)(C)C(C)(C)O)c21`, the TGI in the experiment on UACC-62 melanoma, with RXF 393 renal, in the experiment with HOP-92 NSCLC, in the experiment with MALME-3M melanoma, in the experiment with HT29 colon and in the experiment with UO-31 renal was above 100 µM each time. Also, the TGI with SW-620 colon and in the experiment with 786-0 renal was above 100 µM in each case.
`O=C(C1CCCCC1)[C@@H]1[C@]2(C(=O)NC3CCCCC32)[C@@H]2CCCN2[C@@]12C(=O)NC1CCC(Cl)CC12` (stereo not given in full): the GI50 in the experiment with SK-MEL-28 melanoma was 129 µM; in the experiment on UACC-62 melanoma it was 91.9 µM; with RXF 393 renal it was 113 µM; with MALME-3M melanoma it was 132 µM; with HT29 colon, 64.4 µM; in the experiment on UO-31 renal, 54.1 µM. Besides, the figures for the GI50 with SW-620 colon, in the experiment with 786-0 renal and with MDA-MB-231 breast were 98.6 µM, 151 µM and 70.3 µM, respectively. Besides, the TGI worked out at 278 µM in the experiment on SK-MEL-28 melanoma; 215 µM in the experiment on UACC-62 melanoma; 301 µM in the experiment with RXF 393 renal; 330 µM in the experiment on MALME-3M melanoma; 199 µM in the experiment with HT29 colon; 226 µM with UO-31 renal. For the same molecule, the TGI in the experiment with SW-620 colon was 238 µM; in the experiment on 786-0 renal it was 319 µM; in the experiment on MDA-MB-231 breast, 224 µM.
Consider `CCCCCCc1cc(C(=O)Nc2cccc(C(F)(F)F)c2)nc(N)n1`, for which the TGI in the experiment with SK-MEL-28 melanoma, in the experiment on UACC-62 melanoma, in the experiment with RXF 393 renal, with HOP-92 NSCLC, in the experiment with MALME-3M melanoma and in the experiment on HT29 colon was above 100 µM each time. Further, the TGI in the experiment on UO-31 renal, in the experiment on SW-620 colon and with 786-0 renal was above 100 µM each time.
As to `CCN1CCC(CCOC)(CN2c3ccccc3Sc3ccc(Cl)cc32)C1` (stereo not given), the GI50 with SK-MEL-28 melanoma was 1.97 µM; in the experiment on UACC-62 melanoma, 2.05 µM; with RXF 393 renal, 1.77 µM; with MALME-3M melanoma, 1.91 µM; with UO-31 renal, 1.66 µM; in the experiment on SW-620 colon it was 1.7 µM. In addition, the GI50 with 786-0 renal was 1.81 µM; with MDA-MB-231 breast it was 1.86 µM. In addition, the TGI in the experiment on SK-MEL-28 melanoma turned out to be 3.62 µM; with UACC-62 melanoma, 3.81 µM; in the experiment with RXF 393 renal, 4.03 µM; with MALME-3M melanoma it was 3.6 µM; in the experiment on UO-31 renal, 3.63 µM; with SW-620 colon it was 3.24 µM. In addition, the TGI with 786-0 renal amounted to 3.39 µM; with MDA-MB-231 breast, 3.67 µM.
